Measured values taken from the supplement of paper PMC4862054.
Where “and” joins values, the source holds several entries; their conditions need not be identical. Equal values may be shown once.

Columns and labels:
SK-BR-3 [1] = assay: drug sensitivity score (DSS), CellTiter-Glo (DSS (AUC-based score)); higher = stronger drug effect (viability inhibition or cytotoxicity); extreme values may be limits of the assay; conditions: incubation time: 72 h
Summary of the method: (§1)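 Plates with 384 wells held compound at 5 concentrations in 10-fold steps over a 10,000-fold range specific to each compound. Breast cancer cell lines were added in 20 µl suspension and incubated 72 h, then read for CellTox Green and CellTiter-Glo signals, with each plate normalised to 0.1 % DMSO and a positive kill control. The drug sensitivity score is based on the area under the fitted dose-response curve.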

MDA-MB-468 [2] = assay: as above; conditions: incubation time: 72 h
Summary of the method: as §1

HCC1143 = assay: as above; conditions: incubation time: 72 h
Summary of the method: as §1

MDA-MB-453 [3] = assay: as above; conditions: incubation time: 72 h
Summary of the method: as §1

HDQ-P1 [4] = assay: as above; conditions: incubation time: 72 h
Summary of the method: as §1

CAL-51 [5] = assay: as above; conditions: incubation time: 72 h
Summary of the method: as §1

DU-4475 [6] = assay: as above; conditions: incubation time: 72 h
Summary of the method: as §1

BT-474 [7] = assay: as above; conditions: incubation time: 72 h
Summary of the method: as §1

CAL-120 [8] = assay: as above; conditions: incubation time: 72 h
Summary of the method: as §1

CAL-148 [9] = assay: as above; conditions: incubation time: 72 h
Summary of the method: as §1

HCC1599 = assay: as above; conditions: incubation time: 72 h
Summary of the method: as §1

CAL-85-1 [10] = assay: as above; conditions: incubation time: 72 h
Summary of the method: as §1

Hs578T [11] = assay: as above; conditions: incubation time: 72 h
Summary of the method: as §1

MDA-MB-231 [12] = assay: as above; conditions: incubation time: 72 h
Summary of the method: as §1

SK-BR-3 [13] = conditions: 72 h
Summary of the method: (§2)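 Seeding of breast cancer cell lines (20 µl suspension) was done into 384-well plates pre-loaded with compound at 5 concentrations, 10-fold apart, covering a compound-specific 10,000-fold range. The plates were incubated for 72 h, read for CellTox Green fluorescence (485/520 nm), and then read for CellTiter-Glo luminescence after 10 min at room temperature. Every plate was normalised to 0.1 % DMSO and a positive kill control. Curve fitting gave the EC50, censored at the top concentration.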

MDA-MB-436 = conditions: 72 h
Summary of the method: as §2

HCC1937 = conditions: 72 h
Summary of the method: as §2

MDA-MB-468 [14] = conditions: 72 h
Summary of the method: as §2

MDA-MB-453 [15] = conditions: 72 h
Summary of the method: as §2

CAL-51 [16] = conditions: 72 h
Summary of the method: as §2

BT-474 [17] = conditions: 72 h
Summary of the method: as §2

MCF-10A = conditions: 72 h
Summary of the method: as §2

CAL-85-1 [18] = conditions: 72 h
Summary of the method: as §2

BT-549 = conditions: 72 h
Summary of the method: as §2

MDA-MB-231 [19] = conditions: 72 h
Summary of the method: as §2

MDA-MB-453 [20] = assay: normalised viability (% of control), CellTiter-Blue; higher = more viable cells (about 100 = DMSO control); conditions: incubation time: 72 h
Method: (§3)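 DSRT, CellTiter-Blue viability, 72 h incubation. Signal is normalised to DMSO and benzethonium chloride controls. Value is the normalised response at dose 7.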

HDQ-P1 [21] = assay: as above; conditions: incubation time: 72 h
Method: as §3

CAL-51 [22] = assay: as above; conditions: incubation time: 72 h
Method: as §3

DU-4475 [23] = assay: as above; conditions: incubation time: 72 h
Method: as §3

CAL-148 [24] = assay: as above; conditions: incubation time: 72 h
Method: as §3

CAL-85-1 [25] = assay: as above; conditions: incubation time: 72 h
Method: as §3

CAL-120 [26] = conditions: 72 h
Summary of the method: as §2

Hs578T [27] = conditions: 72 h
Summary of the method: as §2

| SMILES | drug sensitivity score (SK-BR-3 [1]) | drug sensitivity score (MDA-MB-468 [2]) | drug sensitivity score (HCC1143) | drug sensitivity score (MDA-MB-453 [3]) | drug sensitivity score (HDQ-P1 [4]) | drug sensitivity score (CAL-51 [5]) | drug sensitivity score (DU-4475 [6]) | drug sensitivity score (BT-474 [7]) | drug sensitivity score (CAL-120 [8]) | drug sensitivity score (CAL-148 [9]) | drug sensitivity score (HCC1599) | drug sensitivity score (CAL-85-1 [10]) | drug sensitivity score (Hs578T [11]) | drug sensitivity score (MDA-MB-231 [12]) | EC50, CellTiter-Glo (MDA-MB-453 [15]) | EC50, CellTiter-Glo (CAL-51 [16]) | EC50, CellTiter-Glo (BT-549) | normalised viability (MDA-MB-453 [20]; 1000 nM) | normalised viability (HDQ-P1 [21]; 1000 nM) | normalised viability (CAL-51 [22]; 1000 nM) | further results |
| --- | --- | --- | --- | --- | --- | --- | --- | --- | --- | --- | --- | --- | --- | --- | --- | --- | --- | --- | --- | --- | --- |
| CN(C)C[C@@H]1CCn2cc(c3ccccc32)C2=C(C(=O)NC2=O)c2cn(c3ccccc23)CCO1 [Ruboxistaurin] | 7.58 | 8.68 | 3 | 6.05 | 4.6 | 6.02 | 3.25 | 7 | 0 | 8.61 | 0 | 5.13 | 0 | 6.63 | 2920 nM | 2770 nM | 2460 nM | 102% | 67.1% | 76.8% | EC50, CellTiter-Glo (SK-BR-3 [13]): 2160 nM; EC50, CellTiter-Glo (MDA-MB-436): 2670 nM; EC50, CellTiter-Glo (HCC1937): 6180 nM; EC50, CellTiter-Glo (MDA-MB-468 [14]): 1700 nM; EC50, CellTiter-Glo (BT-474 [17]): 2390 nM; EC50, CellTiter-Glo (MCF-10A): 7230 nM; EC50, CellTiter-Glo (CAL-85-1 [18]): 3470 nM; EC50, CellTiter-Glo (MDA-MB-231 [19]): 2590 nM; normalised viability (DU-4475 [23]; 1000 nM): 73.9%; normalised viability (CAL-148 [24]; 1000 nM): 101%; normalised viability (CAL-85-1 [25]; 1000 nM): 122% |
| CCCCCCCCc1ccc(CCC(N)(CO)CO)cc1 [Fingolimod] | 5.36 | 5.78 | 0 | 5.2 | 2.05 | 4.51 | 0 | 6.1 | 0 | 1.1 | 0.954 | 5.32 | 0 | 6.21 | 3370 nM | 2040 nM | 4440 nM | 103% | 110% | 112% | EC50, CellTiter-Glo (SK-BR-3 [13]): 3330 nM; EC50, CellTiter-Glo (MDA-MB-436): 4810 nM; EC50, CellTiter-Glo (HCC1937): 3900 nM; EC50, CellTiter-Glo (MDA-MB-468 [14]): 3050 nM; EC50, CellTiter-Glo (BT-474 [17]): 2870 nM; EC50, CellTiter-Glo (MCF-10A): 3350 nM; EC50, CellTiter-Glo (CAL-85-1 [18]): 3340 nM; EC50, CellTiter-Glo (MDA-MB-231 [19]): 2800 nM; normalised viability (DU-4475 [23]; 1000 nM): 109%; normalised viability (CAL-148 [24]; 1000 nM): 96.3%; normalised viability (CAL-85-1 [25]; 1000 nM): 93.4% |
| Nc1ncnc2c1c(COc1cccc(Cl)c1)nn2C1CCOCC1 | 0 | 0 | 0 | 0 | 0 | 0 | 0 | 0 | 0 | 0 | 0 | 0 | 0 | 0 | – | – | > 10000 nM | – | – | – | – |
| Nc1nc(OCc2cc(Br)cs2)c2[nH]cnc2n1 [Lomeguatrib] | 0 | 0 | 0 | 0 | 0 | 0 | 0 | 0 | 0 | 0 | 0 | 0 | 0 | 0 | – | – | – | – | – | – | – |
| O=C(O)CCCc1ccc(N(CCCl)CCCl)cc1 [Chlorambucil] | 0 | 0 | 0 | 0 | 0 | 0 | 0 | 0 | 0 | 0 | 0 | 0 | 0 | 0 | – | – | – | 113% | 98.9% | 101% | normalised viability (DU-4475 [23]; 1000 nM): 103%; normalised viability (CAL-148 [24]; 1000 nM): 105%; normalised viability (CAL-85-1 [25]; 1000 nM): 97.5% |
| Cc1cc2c(C(C)C)c(O)c(O)c(C=O)c2c(O)c1-c1c(C)cc2c(C(C)C)c(O)c(O)c(C=O)c2c1O [Gossypol] | – | – | – | – | – | – | – | – | – | – | – | – | – | – | – | – | – | – | – | – | normalised viability (MDA-MB-453 [20]; 10000 nM): 18.4%; normalised viability (HDQ-P1 [21]; 10000 nM): 52.5%; normalised viability (CAL-51 [22]; 10000 nM): 60.5%; normalised viability (DU-4475 [23]; 10000 nM): 2.82%; normalised viability (CAL-148 [24]; 10000 nM): 70.7%; normalised viability (CAL-85-1 [25]; 10000 nM): 45.8% |
| CO[C@H]1C[C@@H]2CC[C@@H](C)[C@@](O)(O2)C(=O)C(=O)N2CCCC[C@H]2C(=O)O[C@H]([C@H](C)C[C@@H]2CC[C@@H](OCCO)[C@H](OC)C2)CC(=O)[C@H](C)/C=C(\C)[C@@H](O)[C@@H](OC)C(=O)[C@H](C)C[C@H](C)/C=C/C=C/C=C/1C [Everolimus] | 12.7 | 16 | 8.31 | 10 | 3.41 | 9.8 | 6.44 | 3.02 | 8.8 | 13.4 | 0 | 10.6 | 9.44 | 0 | 1.65 nM | 0.67 nM | 0.13 nM | – | – | – | EC50, CellTiter-Glo (SK-BR-3 [13]): 0.49 nM; EC50, CellTiter-Glo (MDA-MB-436): 0.76 nM; EC50, CellTiter-Glo (HCC1937): 0.24 nM; EC50, CellTiter-Glo (MDA-MB-468 [14]): 0.13 nM; EC50, CellTiter-Glo (BT-474 [17]): 4.76 nM; EC50, CellTiter-Glo (CAL-120 [26]): 0.67 nM; EC50, CellTiter-Glo (CAL-85-1 [18]): 0.22 nM; EC50, CellTiter-Glo (Hs578T [27]): 0.18 nM; normalised viability (MDA-MB-453 [20]; 100 nM): 29.1% and 22.3%; normalised viability (HDQ-P1 [21]; 100 nM): 72.6% and 57.6%; normalised viability (CAL-51 [22]; 100 nM): 36.9% and 38%; normalised viability (DU-4475 [23]; 100 nM): 49.9% and 56%; normalised viability (CAL-148 [24]; 100 nM): 42% and 40.4%; normalised viability (CAL-85-1 [25]; 100 nM): 61.3% and 49.3% |
| Cc1ccc(NC(=O)c2ccc(CN3CCN(C)CC3)cc2)cc1Nc1nccc(-c2cccnc2)n1 [Imatinib] | 0 | 0 | 0 | 0.32 | 0 | 1.42 | 0 | 0 | 0 | 0 | 0 | 0 | 0 | 0 | > 10000 nM | 4170 nM | – | 110% and 92.5% | 106% and 122% | 106% and 102% | normalised viability (DU-4475 [23]; 1000 nM): 115% and 108%; normalised viability (CAL-148 [24]; 1000 nM): 82.7% and 100%; normalised viability (CAL-85-1 [25]; 1000 nM): 92.6% and 82.5% |
